# Source: ChEMBL document CHEMBL1201862, “PubChem BioAssay data set” (2004)
# Activity calls are given as the source filed them.
# Assays:
# Insulin-degrading enzyme = target: T1, Insulin-degrading enzyme (Homo sapiens, UniProt P14735); assay: Dose Response: Fluorescence polarization-based cell-based high throughput dose response assay for inhibitors of insulin-degrading enzyme (IDE). [Related pubchem assays: 434962 (Primary screen (IDE inhibitors in singlicate)), 449730 (Counterscreen (Cytotoxicity in triplicate)), 435028 (Confirmation (IDE inhibitors in triplicate)), 434984 (Summary …; type: functional
# T1 sequence (P14735 whole entry): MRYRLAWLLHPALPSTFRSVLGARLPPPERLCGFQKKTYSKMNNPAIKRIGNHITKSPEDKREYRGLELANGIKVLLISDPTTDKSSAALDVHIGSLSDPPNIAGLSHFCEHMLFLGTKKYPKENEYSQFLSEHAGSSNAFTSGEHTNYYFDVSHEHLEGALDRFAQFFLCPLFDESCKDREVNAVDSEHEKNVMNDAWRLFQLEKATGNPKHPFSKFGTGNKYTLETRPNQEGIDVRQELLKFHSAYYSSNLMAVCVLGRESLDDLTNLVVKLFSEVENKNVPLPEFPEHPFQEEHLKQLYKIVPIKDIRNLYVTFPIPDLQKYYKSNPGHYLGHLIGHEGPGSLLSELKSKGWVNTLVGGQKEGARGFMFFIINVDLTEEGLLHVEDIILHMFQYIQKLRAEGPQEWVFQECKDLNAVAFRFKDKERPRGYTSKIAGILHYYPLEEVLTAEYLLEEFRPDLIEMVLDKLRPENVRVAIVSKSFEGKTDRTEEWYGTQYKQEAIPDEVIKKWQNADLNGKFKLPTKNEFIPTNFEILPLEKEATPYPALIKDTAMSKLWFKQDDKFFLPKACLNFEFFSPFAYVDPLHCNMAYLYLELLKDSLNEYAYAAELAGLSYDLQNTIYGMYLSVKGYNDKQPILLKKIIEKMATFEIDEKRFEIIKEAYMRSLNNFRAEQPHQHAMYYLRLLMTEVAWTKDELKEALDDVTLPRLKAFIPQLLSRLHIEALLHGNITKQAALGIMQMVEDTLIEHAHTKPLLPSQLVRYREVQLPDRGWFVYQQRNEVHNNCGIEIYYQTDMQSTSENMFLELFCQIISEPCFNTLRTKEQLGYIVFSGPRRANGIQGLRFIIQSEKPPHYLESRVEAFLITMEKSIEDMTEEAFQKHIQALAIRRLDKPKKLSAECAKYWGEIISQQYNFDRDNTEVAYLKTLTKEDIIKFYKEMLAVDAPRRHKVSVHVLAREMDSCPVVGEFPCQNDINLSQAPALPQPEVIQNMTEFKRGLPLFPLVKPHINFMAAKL
# Protein Wnt-3a = Protein Wnt-3a (Mus musculus, UniProt P27467); assay: Wnt3a-driven reporter signaling inhibition, dose response, selectivity assay for Gli-SUFU antagonist project, Wnt-LIGHT cells, luminescence (AID 651570); type: functional; details: read-out: IC50_Mean;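 note: Wnt-LIGHT reporter cells stimulated with conditioned medium from Wnt3a-producing cells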
# [1] = cytotoxicity in HEK-293T cells, dose response, cytotoxicity control for BCR NF-kB inhibitor project, luminescence, B-cell screen hits (AID 489021); type: functional, cell-based;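 note: HEK-293T cells carrying an NF-kB luciferase reporter; cells exposed to compound for about 14 hours before viability readout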
# [2] = Counterscreen for IDE inhibitors: Luminescence-based cell-based high throughput dose response assay to identify compounds that are cytotoxic to HEK cells. [Related pubchem assays: 434962 (Primary screen (IDE inhibitors in singlicate)), 449730 (Counterscreen (Cytotoxicity in triplicate)), 435028 (Confirmation (IDE inhibitors in triplicate)) …; type: functional; details: HEK293
# [3] = target: Peroxisome proliferator-activated receptor gamma/Nuclear receptor corepressor 2 (Homo sapiens, UniProt P37231+Q9Y618); type: functional
# [4] = target: Photoreceptor-specific nuclear receptor (Homo sapiens, UniProt Q9Y5X4); type: functional;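 note: potency for compounds that break the NR2E3 corepressor complex and count as activators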
# [5] = inhibitors of SNCA 5'UTR-driven translation, confirmation, luminescence, H4 neuroglioblastoma cells, dose confirmation (AID 2454); type: functional, cell-based;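 note: H4 neuroglioblastoma cells carrying an alpha-synuclein 5'UTR luciferase reporter; potency for inhibition of the luciferase signal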
# [6] = inhibitors of firefly luciferase expression or activity, dose response, H4 neuroglioma cells, luminescence (AID 1990); type: functional, cell-based
# [7] = inhibitors of SNCA 5'UTR-driven reporter translation, confirmation, H4 neuroglioma cells, luminescence (AID 1988); type: functional, cell-based
# cells = type: functional, cell-based
# [8] = luciferase reporter signal reduction – luminescence, H4-C neuroglioblastoma cells, dose response (AID 2458); type: functional, cell-based;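 note: H4 neuroglioblastoma cells stably carrying a luciferase reporter gene fusion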
# [9] = target: T2, Neuropeptide Y receptor type 1 (Homo sapiens, UniProt P25929); assay: Fluorescence-based dose response cell-based high-throughput screening assay for agonists of NPY-Y1. [Related pubchem assays: 1697 (Screening assay (NPY-Y1 agonists).), 1359 (Screening assay (NPY-Y2 potentiators or agonists).), 1304 (Screening assay (NPY-Y1 potentiators or agonists).), 1704 (Screening assay (CNGC inhibitors).), 1791 (Summary AID.)]; type: functional
# T2 sequence (P25929 whole entry): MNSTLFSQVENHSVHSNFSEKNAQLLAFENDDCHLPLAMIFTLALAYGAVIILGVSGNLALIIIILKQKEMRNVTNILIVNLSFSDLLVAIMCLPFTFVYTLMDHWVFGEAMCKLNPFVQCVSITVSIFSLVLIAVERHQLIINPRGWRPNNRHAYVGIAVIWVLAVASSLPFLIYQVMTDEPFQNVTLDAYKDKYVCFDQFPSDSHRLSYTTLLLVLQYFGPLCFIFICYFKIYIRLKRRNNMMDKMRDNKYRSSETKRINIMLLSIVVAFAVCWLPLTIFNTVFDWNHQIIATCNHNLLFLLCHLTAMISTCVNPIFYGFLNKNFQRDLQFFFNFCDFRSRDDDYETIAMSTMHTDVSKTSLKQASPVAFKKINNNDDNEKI
# [10] = target: T3, Neuropeptide Y receptor type 2 (Homo sapiens, UniProt P49146); assay: Fluorescence-based counterscreen for agonists of NPY-Y1: cell-based high-throughput dose response assay for agonists of NPY-Y2.; type: functional
# T3 sequence (P49146 whole entry): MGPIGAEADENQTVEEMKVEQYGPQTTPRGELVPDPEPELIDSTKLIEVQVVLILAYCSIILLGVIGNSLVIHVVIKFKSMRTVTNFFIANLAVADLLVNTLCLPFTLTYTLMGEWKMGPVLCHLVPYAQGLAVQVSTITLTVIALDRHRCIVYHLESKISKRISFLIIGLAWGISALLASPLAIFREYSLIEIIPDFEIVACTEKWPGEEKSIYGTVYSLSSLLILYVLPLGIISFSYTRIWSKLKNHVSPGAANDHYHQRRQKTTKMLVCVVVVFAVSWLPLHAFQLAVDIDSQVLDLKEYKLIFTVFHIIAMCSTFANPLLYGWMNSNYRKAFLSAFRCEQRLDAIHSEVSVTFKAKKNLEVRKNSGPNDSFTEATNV
# HEK293 = assay: Fluorescence-based counterscreen for potentiators or agonists of NPY-Y1: cell-based high-throughput dose response assay for inhibitors of cyclic nucleotide gated ion channel (CNGC) activity. In this assay, the parental HEK293 cell line transfected with a cyclic-nucleotide gated ion channel (CNGC)-based cAMP sensor is used to measure inhibition of isoproterenol-induced CNGC …; type: functional; details: Homo sapiens
# Chain of Photoreceptor-specific nuclear receptor (Q9Y5X4 whole entry): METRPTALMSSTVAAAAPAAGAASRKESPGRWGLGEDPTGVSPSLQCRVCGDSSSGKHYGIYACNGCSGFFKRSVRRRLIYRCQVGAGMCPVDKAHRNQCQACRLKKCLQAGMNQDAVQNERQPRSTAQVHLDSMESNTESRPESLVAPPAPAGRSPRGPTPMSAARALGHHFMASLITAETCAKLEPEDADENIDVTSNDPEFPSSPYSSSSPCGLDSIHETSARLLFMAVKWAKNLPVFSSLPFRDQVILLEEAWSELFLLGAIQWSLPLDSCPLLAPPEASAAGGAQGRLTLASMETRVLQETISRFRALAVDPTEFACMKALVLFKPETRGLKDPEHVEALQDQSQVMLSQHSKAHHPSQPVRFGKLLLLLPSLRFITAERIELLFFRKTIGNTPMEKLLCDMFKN
# Chain of Protein Wnt-3a (P27467 whole entry): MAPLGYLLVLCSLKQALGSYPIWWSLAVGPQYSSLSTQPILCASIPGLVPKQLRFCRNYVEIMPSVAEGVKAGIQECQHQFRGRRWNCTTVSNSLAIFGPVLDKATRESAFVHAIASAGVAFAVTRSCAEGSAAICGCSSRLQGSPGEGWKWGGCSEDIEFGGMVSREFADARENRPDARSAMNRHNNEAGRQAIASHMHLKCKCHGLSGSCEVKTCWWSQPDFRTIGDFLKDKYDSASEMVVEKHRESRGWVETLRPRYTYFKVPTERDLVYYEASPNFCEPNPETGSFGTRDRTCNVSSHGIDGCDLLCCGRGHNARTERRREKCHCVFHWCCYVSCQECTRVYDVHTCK
# Chain of Peroxisome proliferator-activated receptor gamma/Nuclear receptor corepressor 2 (P37231 whole entry): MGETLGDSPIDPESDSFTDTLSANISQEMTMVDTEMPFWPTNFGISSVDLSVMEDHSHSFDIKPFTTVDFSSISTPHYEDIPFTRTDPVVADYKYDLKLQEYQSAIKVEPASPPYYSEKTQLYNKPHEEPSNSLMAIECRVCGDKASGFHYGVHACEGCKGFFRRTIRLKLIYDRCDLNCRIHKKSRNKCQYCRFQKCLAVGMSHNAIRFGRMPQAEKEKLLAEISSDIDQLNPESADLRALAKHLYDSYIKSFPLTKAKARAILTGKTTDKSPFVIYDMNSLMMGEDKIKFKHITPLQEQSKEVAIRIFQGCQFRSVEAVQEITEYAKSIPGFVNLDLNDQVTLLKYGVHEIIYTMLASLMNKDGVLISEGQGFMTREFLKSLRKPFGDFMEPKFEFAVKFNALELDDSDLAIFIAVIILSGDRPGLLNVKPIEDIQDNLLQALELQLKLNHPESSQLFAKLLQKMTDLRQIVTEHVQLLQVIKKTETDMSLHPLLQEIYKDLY
# Chain of Peroxisome proliferator-activated receptor gamma/Nuclear receptor corepressor 2 (Q9Y618 whole entry): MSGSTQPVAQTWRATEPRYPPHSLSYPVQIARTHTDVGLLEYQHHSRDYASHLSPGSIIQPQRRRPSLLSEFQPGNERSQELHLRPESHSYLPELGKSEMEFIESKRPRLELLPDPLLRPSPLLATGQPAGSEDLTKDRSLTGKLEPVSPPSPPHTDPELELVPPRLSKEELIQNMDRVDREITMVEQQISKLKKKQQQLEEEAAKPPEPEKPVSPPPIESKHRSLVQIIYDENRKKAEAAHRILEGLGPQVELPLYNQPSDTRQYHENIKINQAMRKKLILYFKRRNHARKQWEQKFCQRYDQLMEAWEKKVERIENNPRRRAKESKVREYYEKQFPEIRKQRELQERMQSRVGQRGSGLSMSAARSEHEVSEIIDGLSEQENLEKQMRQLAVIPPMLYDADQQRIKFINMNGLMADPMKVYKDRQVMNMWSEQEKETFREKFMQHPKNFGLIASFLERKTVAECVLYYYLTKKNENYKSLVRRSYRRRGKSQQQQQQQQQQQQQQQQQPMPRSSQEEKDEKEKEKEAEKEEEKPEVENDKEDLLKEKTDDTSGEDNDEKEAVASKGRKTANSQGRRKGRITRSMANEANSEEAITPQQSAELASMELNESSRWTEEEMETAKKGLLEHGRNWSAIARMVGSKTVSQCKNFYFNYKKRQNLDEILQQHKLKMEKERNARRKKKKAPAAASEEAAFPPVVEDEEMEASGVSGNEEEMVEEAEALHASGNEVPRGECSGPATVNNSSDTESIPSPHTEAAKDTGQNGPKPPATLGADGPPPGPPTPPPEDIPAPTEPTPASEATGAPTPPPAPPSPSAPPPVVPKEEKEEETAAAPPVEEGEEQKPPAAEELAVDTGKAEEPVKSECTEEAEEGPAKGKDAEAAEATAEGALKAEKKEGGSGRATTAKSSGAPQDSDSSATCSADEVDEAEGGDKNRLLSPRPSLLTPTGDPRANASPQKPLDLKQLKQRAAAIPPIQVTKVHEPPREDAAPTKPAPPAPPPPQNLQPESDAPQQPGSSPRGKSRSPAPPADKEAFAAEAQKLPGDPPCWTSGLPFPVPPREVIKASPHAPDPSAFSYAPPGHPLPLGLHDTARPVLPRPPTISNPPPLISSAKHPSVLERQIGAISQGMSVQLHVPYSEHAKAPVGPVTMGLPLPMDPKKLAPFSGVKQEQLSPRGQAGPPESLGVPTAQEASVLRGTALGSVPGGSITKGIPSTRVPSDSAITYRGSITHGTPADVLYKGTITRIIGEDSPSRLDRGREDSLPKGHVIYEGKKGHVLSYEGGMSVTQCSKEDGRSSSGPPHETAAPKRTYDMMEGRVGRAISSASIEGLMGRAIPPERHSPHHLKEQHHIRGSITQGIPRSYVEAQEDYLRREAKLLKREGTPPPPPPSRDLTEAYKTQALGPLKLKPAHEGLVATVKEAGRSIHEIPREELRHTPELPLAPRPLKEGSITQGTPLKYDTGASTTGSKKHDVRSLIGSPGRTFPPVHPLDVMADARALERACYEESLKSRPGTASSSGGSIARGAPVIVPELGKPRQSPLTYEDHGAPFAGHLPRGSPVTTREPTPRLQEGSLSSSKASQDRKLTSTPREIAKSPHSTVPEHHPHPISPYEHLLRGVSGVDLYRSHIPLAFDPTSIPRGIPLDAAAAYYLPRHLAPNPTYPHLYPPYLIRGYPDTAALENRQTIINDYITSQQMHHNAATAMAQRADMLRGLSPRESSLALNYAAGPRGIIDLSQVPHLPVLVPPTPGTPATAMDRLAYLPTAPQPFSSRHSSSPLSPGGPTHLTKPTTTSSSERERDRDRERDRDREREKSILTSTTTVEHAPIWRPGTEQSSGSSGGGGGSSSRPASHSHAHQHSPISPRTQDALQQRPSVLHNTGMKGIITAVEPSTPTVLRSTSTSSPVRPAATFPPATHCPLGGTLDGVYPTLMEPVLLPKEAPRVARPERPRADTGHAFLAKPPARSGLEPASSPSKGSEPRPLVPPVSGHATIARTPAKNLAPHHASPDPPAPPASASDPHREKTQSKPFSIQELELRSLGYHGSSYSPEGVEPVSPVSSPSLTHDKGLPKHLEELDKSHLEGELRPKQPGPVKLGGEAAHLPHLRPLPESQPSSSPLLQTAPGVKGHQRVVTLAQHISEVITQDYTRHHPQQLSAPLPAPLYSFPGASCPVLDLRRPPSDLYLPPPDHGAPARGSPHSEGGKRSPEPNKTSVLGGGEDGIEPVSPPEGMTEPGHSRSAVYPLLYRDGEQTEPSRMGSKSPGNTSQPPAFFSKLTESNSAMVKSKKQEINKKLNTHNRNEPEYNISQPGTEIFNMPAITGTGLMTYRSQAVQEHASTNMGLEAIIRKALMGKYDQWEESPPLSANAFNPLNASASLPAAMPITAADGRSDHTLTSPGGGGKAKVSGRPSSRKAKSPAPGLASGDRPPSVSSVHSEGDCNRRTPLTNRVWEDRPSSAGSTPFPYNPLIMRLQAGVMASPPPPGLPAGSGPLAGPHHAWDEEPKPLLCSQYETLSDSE
smiles,measurement,setting,value
CC1CCN(c2c(NCc3ccc(C(=O)N4c5ccccc5CC4C)cc3)c(=O)c2=O)CC1 (centres undefined),IC50,Insulin-degrading enzyme,2.98 µM (active)
same,IC50,Protein Wnt-3a,16.4 µM (active)
same,IC50,[1],> 80 µM (inactive)
same,IC50,[2],17.6 µM (not active)
CSc1nc(O)c(C#N)c(-c2ccccc2)n1,IC50,[3],5.34 µM (active)
same,IC50,[4],> 39.8 µM (not active)
O=Cc1cn(Cc2ccccc2F)c2ccccc12,EC50,[5],2.11 µM (active)
same,EC50,[6],14 µM (active)
same,EC50,[7],< 0.1 µM (active)
same,EC50,cells,1.75 µM (active)
same,EC50,[8],3.85 µM (active)
COc1ccccc1Oc1ccc(-c2cnc3ccccc3n2)cc1[N+](=O)[O-],EC50,[9],> 35.4 µM (not active)
same,EC50,[10],> 35.4 µM (not active)
same,IC50,HEK293,> 35.4 µM (not active)
